Experimental data taken from ChEMBL document CHEMBL1201862, “PubChem BioAssay data set” (2004).
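All cell lines were grown in 96-well plates and treated with compound for 48 hours. GI50: concentration for 50% inhibition of growth.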 The source made the active and inactive calls. Rule as the data show it: active = GI50 up to about 1.1 µM and inactive = higher.

Assays:
Assay in all cases: NCI tumour cell line growth inhibition, 48 h
[1] = system: COLO 205
[2] = system: DU-145
[3] = system: HCC 2998
[4] = system: HL-60
[5] = system: HOP-62
[6] = system: HOP-92
[7] = system: IGROV-1
[8] = system: K562
[9] = system: MCF7
[10] = system: MDA-MB-435
[11] = system: NCI-H522
[12] = system: NCI/ADR-RES
[13] = system: OVCAR-4
[14] = system: RPMI-8226
[15] = system: RXF 393
[16] = system: SK-MEL-2
[17] = system: SK-OV-3
[18] = system: TK-10
[19] = system: UACC-257
[20] = system: UO-31

Measured: GI50

Cc1cc(N(CCC#N)CCC#N)ccc1C(=N/NC(=O)c1cc(Cl)ccc1O)/N=N/c1cccc(Cl)c1
inactive: [1] 5.96 µM | [2] 18.1 µM | [3] 12 µM | [4] 4.48 µM | [5] 13.2 µM | [6] 11.8 µM | [7] 1.4 µM | [8] 15.7 µM | [9] 8.79 µM | [10] 27.3 µM | [11] 13.5 µM | [12] 16.3 µM | [13] 8.85 µM | [14] 9.79 µM | [15] 10.7 µM | [16] 10.8 µM | [17] 20.6 µM | [18] 16.5 µM | [19] 15.2 µM | [20] 18.9 µM

C=CC[C@H]1[C@H](O[Si](C)(C)C(C)(C)C)C=CC(=O)[C@@H]1CC(=O)N(Cc1ccccc1)Cc1ccccc1
inactive: [1] 12.9 µM | [2] 27.2 µM | [3] 20.3 µM | [4] 5.48 µM | [5] 25.6 µM | [6] 2.09 µM | [7] 20.8 µM | [8] 4.69 µM | [9] 19.5 µM | [10] 20.9 µM | [11] 5.01 µM | [12] 10.8 µM | [13] 17.5 µM | [14] 9.89 µM | [15] 6.15 µM | [16] 14.8 µM | [17] 26.1 µM | [18] 19.2 µM | [19] 11.5 µM | [20] 11.7 µM

O=NN(CCCl)C(=O)NC1CCC(=O)NC1=O (stereo not given)
inactive: [1] 267 µM | [2] 337 µM | [3] 713 µM | [4] 66.7 µM | [5] 144 µM | [6] 143 µM | [7] 365 µM | [8] 153 µM | [9] 330 µM | [10] 191 µM | [11] 225 µM | [12] 193 µM | [13] 893 µM | [14] 220 µM | [15] 232 µM | [16] 225 µM | [17] 526 µM | [18] 379 µM | [19] 335 µM | [20] 676 µM

CC(=O)Oc1ccc(C2SCc3nc4ccccc4n32)cc1 (stereo not given)
inactive: [1] 19.3 µM | [2] 51.5 µM | [3] 33 µM | [4] 10.6 µM | [5] 41 µM | [6] 25.2 µM | [7] 30.7 µM | [8] 7.23 µM | [9] 8 µM | [10] 5.48 µM | [11] 22.8 µM | [12] 14.8 µM | [13] 24.4 µM | [14] 14.5 µM | [15] 24.2 µM | [16] 22.5 µM | [17] 26.8 µM | [18] 35.2 µM | [19] 33.5 µM | [20] 8.57 µM

Nc1ncn(C2OC(COP(=O)(O)O)C(O)C2O)c(=O)n1 (stereo not given)
inactive: [1] > 100 µM | [2] > 100 µM | [3] > 100 µM | [4] > 64.4 µM | [5] > 77.4 µM | [6] > 100 µM | [7] > 100 µM | [8] > 90.8 µM | [9] > 71 µM | [10] > 53.2 µM | [11] > 87.9 µM | [12] > 100 µM | [13] > 100 µM | [14] > 100 µM | [15] > 100 µM | [16] > 100 µM | [17] > 100 µM | [18] > 100 µM | [19] > 100 µM | [20] > 91.2 µM

O=C(NCCN1CCOCC1)c1ccc2cc(C(=O)N3CC(CCl)c4ccc([N+](=O)[O-])cc43)[nH]c2c1 (stereo not given)
inactive: [1] 25 µM | [2] 17.5 µM | [3] 15 µM | [4] 6.14 µM | [5] 17.1 µM | [6] 8.24 µM | [7] 11.5 µM | [8] 19.4 µM | [9] 17.5 µM | [10] 15.5 µM | [11] 4.67 µM | [12] > 100 µM | [13] 8.77 µM | [14] 2.43 µM | [15] 5.01 µM | [16] 16 µM | [17] 16.1 µM | [18] 16.9 µM | [19] 25 µM | [20] 43.4 µM

Cc1nn2c(=O)c([N+](=O)[O-])c(/C=C/c3ccco3)nc2s1
inactive: [1] 61.4 µM | [2] 40.5 µM | [3] > 100 µM | [4] 30.8 µM | [5] > 100 µM | [6] 36.2 µM | [7] 51.8 µM | [8] 36.6 µM | [9] 38.5 µM | [10] 21.1 µM | [11] 60.5 µM | [12] 46.9 µM | [13] > 100 µM | [14] 36.7 µM | [15] 28.7 µM | [16] 57 µM | [17] 43.6 µM | [18] > 100 µM | [19] 87.5 µM | [20] 58.7 µM

CN(C)CCSCCO
inactive: [1] > 100 µM | [2] > 100 µM | [3] > 100 µM | [4] 97.1 µM | [5] > 100 µM | [6] > 100 µM | [7] > 100 µM | [8] > 100 µM | [9] > 100 µM | [10] > 100 µM | [11] > 100 µM | [12] > 100 µM | [13] > 100 µM | [14] > 100 µM | [15] > 100 µM | [16] > 100 µM | [17] > 100 µM | [18] > 100 µM | [19] > 100 µM | [20] > 100 µM

COc1cc(CN2CCCCC2)cc2cc(C(=O)O)c(=O)oc12
inactive: [1] > 100 µM | [2] > 100 µM | [3] > 100 µM | [4] > 100 µM | [5] > 100 µM | [6] > 100 µM | [7] > 100 µM | [8] > 100 µM | [9] > 100 µM | [10] > 100 µM | [11] > 100 µM | [12] > 100 µM | [13] > 100 µM | [14] > 100 µM | [15] > 100 µM | [16] > 100 µM | [17] > 100 µM | [18] > 100 µM | [19] > 100 µM | [20] > 100 µM

c1ccc(CC2COC(c3cccs3)=N2)cc1 (stereo not given)
inactive: [1] > 100 µM | [2] 42.1 µM | [3] > 73.8 µM | [4] 37.3 µM | [5] > 100 µM | [6] 21.4 µM | [7] > 100 µM | [8] 46.6 µM | [9] 17.9 µM | [10] > 100 µM | [11] > 84.7 µM | [12] 48.5 µM | [13] > 100 µM | [14] > 70.3 µM | [15] 24.5 µM | [16] 43.8 µM | [17] > 68.9 µM | [18] > 90.2 µM | [19] > 100 µM | [20] 64.1 µM
